Measurements reported in US6677371B1, “4-oxybenzopyran derivative” (Nissan Chemical Industries, Ltd., priority 1999, dated 2004).

melting point: 123.5 to 127 °C
Structure (SMILES): CC(=O)Nc1cc2c(cc1[N+](=O)[O-])OC(C)(C)[C@@H](O)[C@@H]2OCCc1ccccc1 (relative stereo) [Synthesis example 2, Trans-6-acetylamino-3,4-dihydro-2,2-dimethyl-7-nitro-4-(2-phenylethoxy)-2H-1-benzopyran-3-ol]
